Assay results published in patent publication US6472348B1, “Pyridone derivatives and herbicides” (Kumiai Chemical Industry Co., Ltd., priority 1996, dated 2002).

Experiments:
barnyardgrass (Ec) = assay: Test Example 1: herbicidal effects by paddy field soil treatment; format: in vivo; conditions: 100 g of the active ingredient per 10 ares, 21st day after the application, index 0-5 of Table 47;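 further: grade of growth control; 5 = at least 90%; 4 = 70 to 90%; 3 = 50 to 70%; 2 = 30 to 50%; 1 = 10 to 30%; 0 = under 10%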
In short: (§1)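 Scoring of herbicidal effect came 21 days after application of 100 g active ingredient per 10 ares to flooded (3 cm) paddy-soil pots sown with barnyardgrass, monochoria and bulrush, kept in a greenhouse.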

monochoria (Mo) = assay: as above; format: in vivo; conditions: 100 g of the active ingredient per 10 ares, 21st day after the application, index 0-5 of Table 47;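 further: grade of growth control; 5 = at least 90%; 4 = 70 to 90%; 3 = 50 to 70%; 2 = 30 to 50%; 1 = 10 to 30%; 0 = under 10%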
In short: as §1

bulrush (Sc) = assay: as above; format: in vivo; conditions: 100 g of the active ingredient per 10 ares, 21st day after the application, index 0-5 of Table 47;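 further: grade of growth control; 5 = at least 90%; 4 = 70 to 90%; 3 = 50 to 70%; 2 = 30 to 50%; 1 = 10 to 30%; 0 = under 10%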
In short: as §1

rice flatsedge (Ci) = assay: Test Example 2: herbicidal effects by upland field soil treatment; format: in vivo; conditions: 100 g of the active ingredient per 10 ares;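 further: grade of growth control; 5 = at least 90%; 4 = 70 to 90%; 3 = 50 to 70%; 2 = 30 to 50%; 1 = 10 to 30%; 0 = under 10%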
Description: (§2) (Test on Herbicidal Effects by Upland Field Soil Treatment)

Digitaria ciliaris (Di) = assay: as above; format: in vivo; conditions: 100 g of the active ingredient per 10 ares
Description: as §2

wheat (Tr) [1] = assay: Test Example 5: crop plant selectivity by upland field soil treatment (wheat), phytotoxicity; format: in vivo; parameters: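 grade of crop injury; 5 = at least 90%; 4 = 70 to 90%; 3 = 50 to 70%; 2 = 30 to 50%; 1 = 10 to 30%; 0 = under 10%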; conditions: 21st day after application
In short: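 Pots of sand sown with wheat and weeds (incl. Digitaria ciliaris, green foxtail, slender amaranth), seeds covered with soil, soil-applied treatment. Grown in greenhouse; herbicidal effect and crop phytotoxicity scored visually on day 21 after application against a rating scale.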

wheat (Tr) [2] = assay: Test Example 9: crop plant selectivity by upland field foliage treatment (wheat), phytotoxicity; conditions: dose 1.6 g ai/10a, 14th day after treatment
In short: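 Read-out: weed control and wheat injury, rated by a defined scoring standard 14 days after foliar application.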

[3] = system: common lambsquarters (Ch); assay: Test Example 7: crop plant selectivity by upland field soil treatment (corn), herbicidal effects; format: in vivo; parameters: scale not given here; conditions: 21st day after application
In short: (§3)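 Corn and weeds (green foxtail, pale smartweed, slender amaranth, common lambsquarters, China jute) sown in sand-filled pots, covered with soil and treated by soil application. Grown in a greenhouse; herbicidal effect and crop phytotoxicity scored on day 21 after application using a fixed rating scale.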

pale smartweed (Po) = assay: as above; format: in vivo; parameters: scale not given here; conditions: 21st day after application
In short: as §3

green foxtail (Se) = assay: as above; format: in vivo; parameters: scale not given here; conditions: 21st day after application
In short: as §3

slender amaranth (Am) = assay: as above; format: in vivo; parameters: scale not given here; conditions: 21st day after application
In short: as §3

China jute (Ab) = assay: as above; format: in vivo; parameters: scale not given here; conditions: 21st day after application
In short: as §3

[4] = evaluated on the 21st day after application
[5] = 21st day after the application, index 0-5 of Table 47

| Compound | Herbicidal effects Ec (barnyardgrass (Ec)) | Herbicidal effects Mo (monochoria (Mo)) | Herbicidal effects Sc (bulrush (Sc)) | Herbicidal effects Ci (rice flatsedge (Ci); [4]) | Herbicidal effects Di (Digitaria ciliaris (Di); [4]) | Phytotoxicity Tr (wheat (Tr) [1]; dose 1.6 g ai/10a) | Phytotoxicity Tr (wheat (Tr) [1]; dose 6.3 g ai/10a) | Phytotoxicity Tr (wheat (Tr) [2]) | Herbicidal effects Ci (rice flatsedge (Ci); [5]) | Herbicidal effects Di (Digitaria ciliaris (Di); [5]) | Herbicidal effects Ch ([3]; dose 1.6 g ai/10a) | Herbicidal effects Po (pale smartweed (Po); dose 1.6 g ai/10a) | Herbicidal effects Se (green foxtail (Se); dose 1.6 g ai/10a) | Herbicidal effects Am (slender amaranth (Am); dose 1.6 g ai/10a) | Herbicidal effects Ab (China jute (Ab); dose 1.6 g ai/10a) | Herbicidal effects Ch ([3]; dose 6.3 g ai/10a) | Herbicidal effects Po (pale smartweed (Po); dose 6.3 g ai/10a) | Herbicidal effects Se (green foxtail (Se); dose 6.3 g ai/10a) | Herbicidal effects Am (slender amaranth (Am); dose 6.3 g ai/10a) | Herbicidal effects Ab (China jute (Ab); dose 6.3 g ai/10a) |
| --- | --- | --- | --- | --- | --- | --- | --- | --- | --- | --- | --- | --- | --- | --- | --- | --- | --- | --- | --- | --- |
| C#CCN1C(=O)COc2cc(F)c(-c3ccc(C(F)(F)F)n(C)c3=O)cc21 [Compound No. 2-1, 3-[7-fluoro-2,3-dihydro-4-(2-propynyl)-1,4-benzoxazin-3-on-6-yl]-1-methyl-6-trifluoromethyl-2(1H)-pyridone] | 5 | 5 | 5 | 5 | 5 | 0 |  |  |  |  |  |  |  |  |  |  |  |  |  |  |
| C#CCN1C(=O)COc2cc(F)c(-c3cn(C)c(C(F)(F)F)cc3=O)cc21 [Compound 7-1] | 5 | 5 | 5 | 5 | 5 |  | 2 | 2 |  |  |  |  |  |  |  |  |  |  |  |  |
| CON=Cc1cc(-c2ccc(C(F)(F)F)n(C)c2=O)c(F)cc1Cl [Compound No. 1-72, 5-(1-methyl-6-trifluoromethyl-2(1H)-pyridon-3-yl)-2-chloro-4-fluorobenzaldehydeoxime-O-methyl ether] | 5 | 5 | 5 |  |  | 1 |  |  | 5 | 5 | 5 | 5 | 5 | 5 | 5 |  |  |  |  |  |
| Cn1cc(-c2cc(Oc3ccccc3)c(Cl)cc2F)c(=O)cc1C(F)(F)F [Compound No. 6-19, 5-(4-chloro-2-fluoro-5-phenoxyphenyl)-1-methyl-2-trifluoromethyl-4(1H)-pyridone] | 5 | 5 | 5 | 5 | 5 | 0 | 0 |  |  |  |  |  |  |  |  |  |  |  |  |  |
| Cn1c(C(F)(F)F)ccc(-c2cc(OCC#N)c(Cl)cc2F)c1=O [1-25] | 5 | 5 | 5 |  |  |  |  | 2 | 5 | 5 |  |  |  |  |  | 5 | 5 | 5 | 5 | 5 |
| Cn1c(C(F)(F)F)ccc(-c2cc(Cl)c(Cl)cc2F)c1=O [1-136] | 5 | 5 | 5 |  |  | 1 | 2 |  | 5 | 5 | 5 | 5 | 5 | 5 | 5 |  |  |  |  |  |
| C=CCN1C(=O)COc2cc(F)c(-c3ccc(C(F)(F)F)n(C)c3=O)cc21 [Compound 2-7] | 5 | 5 | 5 | 5 | 5 | 0 |  |  |  |  |  |  |  |  |  |  |  |  |  |  |
| Cn1c(C(F)(F)F)ccc(-c2cc(C#N)c(Cl)cc2F)c1=O [Compound No. 1-119, 3-(4-chloro-5-cyano-2-fluorophenyl)-1-methyl-6-trifluoromethyl-2(1H)-pyridone] | 5 | 5 | 5 |  |  |  |  | 2 | 5 | 5 |  |  |  |  |  | 5 | 5 | 5 | 5 | 5 |
| C#CC(C)Oc1cc(-c2cn(C)c(C(F)(F)F)cc2=O)c(F)cc1Cl (racemic) [Compound 6-10] | 5 | 5 | 5 | 5 | 5 | 0 |  |  |  |  |  |  |  |  |  |  |  |  |  |  |
| CCOCOc1cc(-c2ccc(C(F)(F)F)n(C)c2=O)c(F)cc1Cl [1-181] | 5 | 5 | 5 | 5 | 5 |  | 1 | 2 |  |  |  |  |  |  |  |  |  |  |  |  |
